“And” between values parts separate entries of the source, which are not always exact repeats. Equal entries are not always repeated. Where two headings read alike, the source gives them in different places.
Tests used:
[1] = Cytotoxicity in HepG2 cells (alamarBlue); conditions: human
[2] = system: L. infantum-iRFP axenic amastigotes; experiment: Viability of L. infantum-iRFP axenic amastigotes (infrared fluorescence, 384-well); assay type: cell-based, Leishmania infantum; conditions: for EC50: Leishmania infantum, 72 h incubation, mean ± SD; for concentrations producing a decrease in fluorescence emission: axenic amastigotes, from 24 h until 72 h
[3] = system: intramacrophage L. infantum-iRFP amastigotes; experiment: Viability of L. infantum-iRFP intramacrophage amastigotes in infected murine splenocytes (infrared fluorescence, 384-well); assay type: cell-based, Leishmania infantum; conditions: for EC50: Leishmania infantum, Splenocyte, 72 h incubation, mean ± SD
[4] = Cytotoxicity in RAW 264.7 cells (alamarBlue); conditions: mouse
[5] = system: intracellular amastigotes of L donovani; conditions: cited from earlier work
[6] = system: L. infantum-iRFP axenic amastigotes; experiment: ROS production by axenic amastigotes (DCFH-DA, flow cytometry); assay type: cell-based, Leishmania infantum; conditions: 3 h treatment, 0.04 μM fexinidazole, 0.28 μM pretomanid (EC50)
L. infantum TryR = L. infantum TryR (Leishmania infantum, UniProt A4HSF7); experiment: Trypanothione reductase enzymatic assay in parasite protein extracts; assay type: biochemical; conditions: up to 100 μM (thioridazine at 100 μM); T[S]2 0.075 mM, NADPH 0.20 mM
L. infantum TryR, sequence (A4HSF7 entry or part of it): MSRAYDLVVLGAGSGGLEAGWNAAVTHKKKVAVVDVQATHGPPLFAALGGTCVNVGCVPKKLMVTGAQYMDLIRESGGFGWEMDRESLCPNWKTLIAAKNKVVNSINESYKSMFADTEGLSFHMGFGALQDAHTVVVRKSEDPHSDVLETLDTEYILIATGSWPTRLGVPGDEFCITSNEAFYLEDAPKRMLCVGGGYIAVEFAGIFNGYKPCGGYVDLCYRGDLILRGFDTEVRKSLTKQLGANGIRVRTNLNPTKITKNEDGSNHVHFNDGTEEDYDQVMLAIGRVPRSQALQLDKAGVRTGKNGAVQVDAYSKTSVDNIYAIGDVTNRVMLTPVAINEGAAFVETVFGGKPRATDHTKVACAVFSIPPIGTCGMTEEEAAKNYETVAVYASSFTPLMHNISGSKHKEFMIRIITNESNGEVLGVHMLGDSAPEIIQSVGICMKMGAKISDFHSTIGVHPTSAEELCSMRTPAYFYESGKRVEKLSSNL

[7] = CC50 HepG2 cells / EC50 axenic amastigotes
[8] = CC50 RAW 264.7 cells / EC50 axenic amastigotes
[9] = CC50 HepG2 cells / EC50 intramacrophage amastigotes
[10] = CC50 RAW 264.7 cells / EC50 intramacrophage amastigotes

## C[C@@H]1[C@H](O)[C@@H](C)/C=C/C=C/C=C/C=C/C=C/C=C/C=C/[C@H](O[C@@H]2O[C@H](C)[C@@H](O)[C@H](N)[C@@H]2O)C[C@@H]2O[C@](O)(C[C@@H](O)C[C@@H](O)[C@H](O)CC[C@@H](O)C[C@@H](O)CC(=O)O[C@H]1C)C[C@H](O)[C@H]2C(=O)O [Amp B]
[1]; HepG2 cells
  CC50 at 72 h: 69800 ± 13700 nM
[2]
  SI1 (Selectivity Index): 258.33
  SI2 (Selectivity Index): 24.82
  EC50: 270 ± 20 nM
[3]
  SI1 (Selectivity Index): 217.97
  SI2 (Selectivity Index): 20.94
  EC50: 320 ± 20 nM
[4]; RAW 264.7 macrophage cells
  CC50 at 72 h: 6700 ± 670 nM

## CSc1ccc(OCc2ncc([N+](=O)[O-])n2C)cc1 [Fexinidazole, 1-methyl-2-((p-(methylthio)-phenoxy)methyl)-5-nitroimidazole]
[1]; HepG2 cells
  CC50 at 72 h: > 200000 nM
[5]
  potency against intracellular amastigotes: little activity
[2]; [7]
  SI1 (Selectivity Index): >5000.00
[2]; [8]
  SI2 (Selectivity Index): >5000.00
[2]
  EC50: 40 nM
  concentrations producing a decrease in fluorescence emission: above 0.125 μM
[3]; [9]
  SI1 (Selectivity Index): >151.52
[3]; [10]
  SI2 (Selectivity Index): >151.52
[3]
  EC50: 1320 ± 60 nM
[4]; RAW 264.7 macrophage cells
  CC50 at 72 h: > 200000 nM
[6]; 0.01% (v/v) H2O2
  percentage of the stressed population (+ROS): 58.4 ± 1.5% and 58.4%
  unstressed population (−ROS): 41.6%
L. infantum TryR
  inhibitory effect on L. infantum TryR: neither fexinidazole nor pretomanid had any inhibitory effect

## OO [H2O2]
[6]; 0.01% (v/v) H2O2
  percentage of the stressed population (+ROS): 72.2%
  unstressed population (−ROS): 27.7%

## O=[N+]([O-])c1cn2c(n1)OC[C@@H](OCc1ccc(OC(F)(F)F)cc1)C2 [Pretomanid]
[1]
  CC50 at 72 h: > 200000 nM
[2]; [7]
  SI1 (Selectivity Index): >714.29
[2]; [8]
  SI2 (Selectivity Index): >714.29
[2]
  EC50: 280 ± 20 nM
  concentrations producing a decrease in fluorescence emission: > 0.5 µM
[3]; [9]
  SI1 (Selectivity Index): >303.03
[3]; [10]
  SI2 (Selectivity Index): >303.03
[3]
  EC50: 660 ± 80 nM
[4]
  CC50 at 72 h: > 200000 nM
[6]; 0.01% (v/v) H2O2
  percentage of the stressed population (+ROS): 39.8%
  unstressed population (−ROS): 59.9%
[6]; 0.01% (v/v) H2O2, listed as pretomanid
  percentage of the stressed population (+ROS): 39.8 ± 1.2%
L. infantum TryR
  inhibitory effect on L. infantum TryR: neither fexinidazole nor pretomanid had any inhibitory effect

## Cn1c([N+](=O)[O-])cnc1COc1ccc(S(C)(=O)=O)cc1 [sulfone]
[5]
  potency against intracellular amastigotes: potency similar to miltefosine

## Cn1c([N+](=O)[O-])cnc1COc1ccc([S+](C)[O-])cc1 (stereo not drawn) [sulfoxide]
[5]
  potency against intracellular amastigotes: potency similar to miltefosine

## CSc1ccc2c(c1)N(CCC1CCCCN1C)c1ccccc1S2 (stereo not drawn) [thioridazine]
L. infantum TryR
  inhibitory effect on L. infantum TryR: completely inhibited the enzyme

Source: PMC11396368, “Free Radical Production Induced by Nitroimidazole Compounds Lead to Cell Death in Leishmania infantum Amastigotes” (Molecules, 2024)
